Results on one compound are retold here after patent US11834663B2, “Fibrotic treatment” (Monash University, priority 2015, dated 2023).

For one experiment, the system named is Ang II-infused WT mice. The experiment is described as follows: Angiotensin II infusion prevention model: systolic blood pressure (tail-cuff). The class given is in vivo, mouse. To be noted: adult WT mice, Ang II 800 ng/kg/min s.c. + HFI-419 500 ng/kg/min, 4 weeks; FIG. 1. On the procedure:
There are 8 different sets of in vivo experiments in this study: • A) Phenotypic characterisation of the heart and blood vessels in global IRAP knockout mice and their WT controls treated for 4 weeks with Angiotensin (Ang) II (800 ng/kg/min; s.c.) where mouse hearts and blood vessels were compared to tissue obtained from young WT and IRAP^−/− mice treated with saline. • B) Prevention of Ang II-induced changes in the cardiovascular system following IRAP inhibitor treatment. […]
All mice which underwent surgery were anaesthetized with Isoflurane (Isorrane) (5% induction and 2.5% maintenance) and an incision made in the midscapular region through which osmotic minipumps (Alzet model 2004, Alza Corp) were inserted for subcutaneous drug administration. […] Systolic blood pressure (SBP) was measured fortnightly using non-invasive tail-cuff plethysmography apparatus (MC4000 Blood Pressure Analysis System, Hatteras Instrument Inc) before drug treatment (week 0), at week 2 of treatment and end of treatment (week 4). At the end of drug treatment, body weight of mice was recorded. […]

The test system of experiment [1] is livers of WT mice on high salt diet. The experiment is described as follows: High salt diet-induced liver fibrosis reversal model (Masson's trichrome). The settings on record: WT mice on 5% NaCl diet 8 weeks, FIG. 28. The class given is in vivo, mouse. On the procedure:
Male C57BL/6J wild type (WT) mice aged approximately 4 to 6 months weighing 30-40 grams were obtained from Monash Animal Research Laboratory. Animals were housed in the Animal House in the Department of Pharmacology, Monash University, in standard cages where they were initially maintained on a normal diet. The housing was maintained at roughly 21° C.±5° C. with mice exposed to a 12 hour light/dark cycle, and access to food and water ad libitum. Experimental procedures undertaken were approved and certified by the School of Biomedical Sciences (SOBS) Animal Ethics Committee of Monash University (2013/118).
A high-salt diet (5% salt) model is a clinically relevant and disease-reversal model which can replicate the high salt intake by humans which is currently a growing problem in the developed countries. High salt intake induces changes in the cardiovascular system and induces remodelling and fibrosis in the heart and liver. […]
Quantification of liver fibrosis was performed using images captured with the Aperio scanner (Monash Histology Platform, Monash University), with ×5 magnification. […] Percentage of interstitial and perivascular collagen was analysed and quantified using ImageJ 1.48 software (Java, NIH), and the percentage from 5 random fields of view were averaged for final percentage of collagen for that particular animal. […]

As to `CCOC(=O)C1=C(NC(C)=O)Oc2cc(O)ccc2C1c1cccnc1` (stereo not drawn) [HFI-419], the “Ang II-induced increase in systolic blood pressure” value in the experiment with Ang II-infused WT mice was “attenuates”. In experiment [1] (HFI-419 0.72 mg/kg/d s.c. for last 4 weeks), the “HSD-induced collagen deposition in liver (Masson's trichrome)” value is recorded as “significantly reversed HSD-induced collagen deposition to the same level seen in mice fed a normal chow diet”. Further, in experiment [1] (HFI-419 for last 4 weeks), the “indicators of steatosis in the liver” value was “markedly reduced”.
